Values of other authors, collected in US20110105453A1, “Superoxide Dismutase Mimics For The Treatment Of Optic Nerve And Retinal Damage” (ALCON, INC., priority 2003, published 2011).

Columns and labels:
[1] = system: light-induced retinal damage in albino rats
[2] = system: NADH-coenzyme Q1 reductase; conditions: uncouples mitochondrial respiration
cytochrome c oxidase = conditions: uncouples mitochondrial respiration
[3] = system: rat ocular ischemia-reperfusion model; conditions: intravitreal injections (SOD protein)

For CC1(C)CC(O)CC(C)(C)N1[O] [4-hydroxy-2,2,6,6-tetramethylpiperidine-1-oxyl], the “inhibition of light-induced retinal damage” value [1] is listed as “inhibited light-induced retinal damage”.

For NCCc1c[nH]c2c1C(=O)C(=O)C=C2 [T-4,5-D, tryptamine 4,5-dione], the “inhibition of NADH-coenzyme Q1 reductase” value [2] is listed as “irreversible inhibition”, the “inhibition of cytochrome c oxidase” value (cytochrome c oxidase) is listed as “irreversible inhibition” and the “inactivation of tryptophan hydroxylase” value (tryptophan hydroxylase) is listed as “irreversibly inactivates”.

In the case of CNC(=S)NC [dimethylthiourea], the functional protection [3] is listed as 40%.
